The test system of the experiment is Phakopsora pachyrhizi. Briefly: Soybean rust greenhouse test: preventive spray of young soybean plants, ABBOTT % efficacy, Colby comparison. The class given is in vivo. To be noted: for Efficacy: fungicide alone, susceptible soybean variety (Miyagishirome), evaluated 11 days after inoculation. How it is done:
One susceptible (Miyagishirome) and soybean varieties tolerant to soybean rust (Phakospora pachyrhizi) (TMG 801 and TMG 803) were cultivated in greenhouse up to 1.5-leaf stage. A suitable preparation of SDHI fungicide was produced by mixing 1 part per weight of the SDHI ingredient with 28.5 parts by weight of acetone as solvent and 1.5 parts by weight of polyoxyethylene alkyl phenyl ether as emulsifier. The concentrate was diluted with water to the desired concentrations.
Young plants of the susceptible and tolerant soybean varieties were sprayed with the preparation of the SDHI fungicide at the stated rate of application to evaluate the activity in controlling Phakopsora pachyrhizi.
One day after spraying, soybean plants were inoculated with an aqueous spore suspension of the causal agent of soybean rust (Phakopsora pachyrhizi). Plants were then placed in a greenhouse at approximately 20 ° C. and a relative atmospheric humidity of approximately 80%. The following trial schedule was applied:
Plants were evaluated 11 days after inoculation. The percentage of infected leaf area was determined visually. The results were calculated according to ABBOTT (% efficacy). 0% means an efficacy which corresponds to that of the control, while an efficacy of 100% means that no disease was observed.
The expected efficiencies for the SDHI fungicide and ASR-tolerant variety combinations were determined according to Colby's formula and compared to the observed efficiencies (Colby, S. R. (1967) Calculating synergistic and antagonistic responses of herbicide combinations, Weeds, 15: 20-22): E=x+y−xy/100
Wherein E is the expected efficacy as a percent of the check when using the combination of a fungicide and ASR-tolerant variety; x is the efficacy of the percent check when using the fungicide; y is the efficacy of the percent check when using the ASR-tolerant variety.
By Comparison of the expected efficacy and the observed efficacy, the synergistic effect can be discerned. If the observed percent efficacy is higher than the calculated expected percent efficacy there is a synergistic effect.

The mark [1] stands for this setting: fungicide + tolerant soybean variety TMG 803, 0.2 ppm a.i.
The mark [2] stands for this setting: fungicide + tolerant soybean variety TMG 803, 1 ppm a.i.
Setting [3] is: fungicide + tolerant soybean variety TMG 803, 5 ppm a.i.
[4] abbreviates: fungicide + tolerant soybean variety TMG 803, 10 ppm a.i.
The mark [5] stands for this setting: fungicide + tolerant soybean variety TMG 803, 25 ppm a.i.
Setting [6] is: fungicide + tolerant soybean variety TMG 803, 50 ppm a.i.
[7] abbreviates: fungicide + tolerant soybean variety TMG 803, 100 ppm a.i.
[8] abbreviates: fungicide + tolerant soybean variety TMG 801, 0.2 ppm a.i.
The mark [9] stands for this setting: fungicide + tolerant soybean variety TMG 801, 1 ppm a.i.
The mark [10] stands for this setting: fungicide + tolerant soybean variety TMG 801, 5 ppm a.i.
The mark [11] stands for this setting: fungicide + tolerant soybean variety TMG 801, 10 ppm a.i.
[12] abbreviates: fungicide + tolerant soybean variety TMG 801, 25 ppm a.i.
Setting [13] is: fungicide + tolerant soybean variety TMG 801, 50 ppm a.i.

In the case of `Cn1cc(C(=O)Nc2ccc(F)cc2-c2ccc(Cl)c(Cl)c2)c(C(F)F)n1` [Bixafen, N-(3′,4′-dichloro-5-fluoro-1,1′-biphenyl-2-yl)-3-(difluoromethyl)-1-methyl-1H-pyrazole-4-carboxamide], the synergistic effect result (applied to TMG 803, concentrations from 100 ppm a.i. to 25 ppm a.i.) is listed as “highest synergistic effect”. Moreover, the Actual efficacy runs as follows: under setting [1], 60%; under setting [2], 70%; under setting [3], 75%; under setting [4], 80%; under setting [5], 96%; under setting [6], 98%. For the same compound, the Actual efficacy under setting [7] amounted to 99%. Besides, the “Expected value, calculated using Colby's formula” value (from here on “Expected value, calculated”) runs as follows: under setting [1], 55%; under setting [2], 58%; under setting [3], 64%; under setting [4], 73%; under setting [5], 80%; under setting [6], 82%. Further, under setting [7], the “Expected value, calculated” value is 78%. The Efficacy (0.2 ppm a.i.) turned out to be 0%; the Efficacy (1 ppm a.i.) stood at 7%; the Efficacy (5 ppm a.i.) turned out to be 20%; the Efficacy (10 ppm a.i.) was determined as 40%; the Efficacy (25 ppm a.i.) is 55%; the Efficacy (50 ppm a.i.) worked out at 60%. For the setting “100 ppm a.i.”, the Efficacy worked out at 50%.
On to `CC(C)C1C2CCC1c1c(NC(=O)c3cn(C)nc3C(F)F)cccc12` (stereo not drawn) [Isopyrazam], for which the Actual efficacy was found to be 55% under setting [1] and 80% under setting [2]. The “Expected value, calculated” value runs as follows: under setting [1], 30%; under setting [2], 65%. Also, the Efficacy amounted to 0% (0.2 ppm a.i.) and 50% (1 ppm a.i.).
`Cc1nn(C)c(F)c1C(=O)Nc1ccccc1C(C)CC(C)C` (stereo not drawn) [Penflufen, N-[2-(1,3-dimethylbutyl)phenyl]-5-fluor-1,3-dimethyl-1H-pyrazole-4-carboxamide]: the “deviation of the actual efficacy from the expected value” (10 ppm a.i., TMG 801 or TMG 803) is recorded as “highest deviations of the actual efficacy from the expected value”. In addition, the Actual efficacy runs as follows: under setting [8], 65%; under setting [9], 70%; under setting [10], 70%; under setting [11], 92%; under setting [12], 98%; under setting [13], 100%. Besides, the Actual efficacy under setting [1] amounted to 70%; the Actual efficacy under setting [2] is listed as 65%; the Actual efficacy under setting [3] is recorded as 95%; the Actual efficacy under setting [4] was found to be 98%; the Actual efficacy under setting [5] was determined as 97%; the Actual efficacy under setting [6] is listed as 100%. The “Expected value, calculated” value was 50% under setting [8]; 50% under setting [9]; 60% under setting [10]; 60% under setting [11]; 78% under setting [12]; 80% under setting [13]. The “Expected value, calculated” value by setting is: under setting [1], 50%; under setting [2], 50%; under setting [3], 60%; under setting [4], 60%; under setting [5], 78%; under setting [6], 80%. For the same compound, the Efficacy turned out to be 0% (0.2 ppm a.i.); 0% (1 ppm a.i.); 20% (5 ppm a.i.); 20% (10 ppm a.i.); 55% (25 ppm a.i.); 60% (50 ppm a.i.).
With `Cn1cc(C(=O)Nc2ccccc2C2CC2C2CC2)c(C(F)F)n1` (stereo not drawn) [Sedaxane], the synergistic effect entry (applied to TMG 803, 0.2 ppm a.i. to 1 ppm a.i. versus 5 ppm a.i. to 25 ppm a.i.) is reported as “higher synergism”. In addition, the Actual efficacy came to 82% under setting [9]; 90% under setting [10]; 98% under setting [11]; 99% under setting [12]; 50% under setting [1]; 60% under setting [2]. Besides, the Actual efficacy runs as follows: under setting [3], 75%; under setting [4], 95%; under setting [5], 100%. For the same compound, the “Expected value, calculated” value is, setting by setting: under setting [9], 65%; under setting [10], 79%; under setting [11], 90%; under setting [12], 99%; under setting [1], 30%; under setting [2], 30%. The “Expected value, calculated” value runs as follows: under setting [3], 58%; under setting [4], 79%; under setting [5], 99%. Besides, the Efficacy came to 0% (0.2 ppm a.i.); 0% (1 ppm a.i.); 40% (5 ppm a.i.); 70% (10 ppm a.i.); 98% (25 ppm a.i.).
Consider `Cn1cc(C(=O)Nc2ccccc2-c2cc(F)c(F)c(F)c2)c(C(F)F)n1` [Fluxapyroxad, 3-(difluoromethyl)-1-methyl-N-(3′,4′,5′-trifluorobiphenyl-2-yl)-1H-pyrazole-4-carboxamide], for which, for the setting “1 ppm a.i. applied to TMG 803, compared over all fungicides and rates”, the synergistic effect result is listed as “most pronounced synergistic effect”. The Actual efficacy under setting [1] was 30%; the Actual efficacy under setting [2] was determined as 65%; the Actual efficacy under setting [3] was found to be 70%; the Actual efficacy under setting [4] is 80%; the Actual efficacy under setting [5] came to 97%. Also, the “Expected value, calculated” value reads like this: under setting [1], 20%; under setting [2], 26%; under setting [3], 68%; under setting [4], 76%; under setting [5], 98%. The Efficacy is reported as 0% (0.2 ppm a.i.); 7% (1 ppm a.i.); 60% (5 ppm a.i.); 70% (10 ppm a.i.); 98% (25 ppm a.i.).

Values taken from patent US9510594B2, “Use of SDHI fungicides on conventionally bred ASR-tolerant, stem canker resistant and/or frog-eye leaf spot resistant soybean varieties” (BAYER INTELLECTUAL PROPERTY GMBH, priority 2011, dated 2016).
